Experimental data taken from PubChem BioAssay AID493064 (Broad Institute, 2011).
“And” between values parts separate entries of the source, which are not always exact repeats. Identical values can stand only once. Inconclusive results are not listed. The source made the active and inactive calls. The rule behind the calls is not given here.

Tested on: C. albicans CaCi-8 + fluconazole, Alamar Blue growth, 48 h
Assay: PubChem AID 493064
Settings: not given

Row | SMILES | AC50
1 | O=C(O)c1nn(Cc2ccc(Cl)cc2)c2ccccc12 | > 26 µM (inactive)
2 | O=C(Cn1nc(-c2ccccc2)c2cc(Cl)ccc21)N1CCOCC1 | > 26 µM (inactive)
3 | O=C(c1ccc(Cl)cc1)N1CCN(c2nc3ccccc3s2)CC1 | 4.94 µM
4 | CC1CCN(C(=O)Cn2c3ccccc3c3nc4n(c(=O)c32)CCS4)CC1 | 8.88 µM
5 | COc1ccc(C(=O)N2CCN(c3ccccn3)CC2)cc1 | 7.53 µM
6 | N#Cc1ccc(N2CCN(C(=O)c3ccc(Cl)cc3)CC2)nc1 | > 26 µM (inactive)
7 | COC(=O)Cn1nc(-c2ccccc2)c2ccccc21 | 3.13 µM

Tested on: not listed separately
Assay: PubChem AID 493064
Settings: C. albicans CaCi-8 + fluconazole, Alamar Blue growth, 48 h; at 26 µM (top of the series)

Row | SMILES | activity change, negative = inhibition
8 | COC(=O)Cn1nc(C)c2ccccc21 | -17.2% (inactive)
9 | O=C(Cn1nc(C(=O)N2CCCCC2)c2ccccc21)N1CCOCC1 | -1.16% (inactive)
10 | O=C(c1ccc(Cl)cc1)N1CCN(c2cccc(C(F)(F)F)n2)CC1 | -8.21% (inactive)
11 | Cc1ccnc(N2CCN(C(=O)c3ccc(Cl)cc3)CC2)c1 | -6.71% (inactive)
12 | O=C(c1cccc(Cl)c1)N1CCN(c2ccccn2)CC1 | -1.33% (inactive)
13 | CCN(CC)C(=O)Cn1c2ccccc2c2nc3n(c(=O)c21)CCS3 | 8.8% (inactive) and 7.89% (inactive)
14 | CCCCC(=O)N1CCN(c2ccccn2)CC1 | -12.5% (inactive)
15 | O=C(Cn1nc(-c2ccccc2)c2ccccc21)NCc1ccc(Cl)cc1 | -6.6% (inactive)
16 | O=C(Cn1c2ccc(F)cc2c2nc3n(c(=O)c21)CCS3)N1CCCCC1 | 8.36% (inactive)
17 | O=C(O)Cn1nc(-c2ccccc2)c2ccccc21 | -17.8% (inactive)
18 | CC(C)C(=O)N1CCN(c2ccccn2)CC1 | -2.77% (inactive)
19 | COC(=O)Cn1c(-c2ccccc2)nc2ccccc21 | -13.8% (inactive)
20 | CCOC(=O)c1c2ccccc2nn1Cc1ccc(Cl)cc1 | 5.94% (inactive)
